US10759740B2, “Antibacterial agents” (Rutgers, The State University of New Jersey, priority 2016, dated 2020)
Converted amounts (≈) assume the structure as drawn.

Key:
[1] = test system: Escherichia coli O157:H7; experiment: Broth microdilution assay (MIC); assay type: cell-based; details: BHI broth, 37° C., 24 h, no visible growth
Method: (§1) From the frozen stock (−80° C.), bacteria were inoculated into brain-hear infusion (BHI) agar (Becton Dickinson, Franklin Lakes, N.J.) and propagated under aerobic conditions at 37° C. for 24 h. After the incubation, one colony of each bacterial strain was transferred to BHI broth (Becton Dickinson, Franklin Lakes, N.J.) and sub-cultured at least twice into BHI before being used in experiments.
(§2) The minimal inhibitory concentration (MIC) of CAms were identified using a broth microdilution assay modified from previous studies. Briefly, the stock solutions of CAMs were first prepared by dissolving in double-distilled water (ddH2O) and then diluted in BHI broth at pre-determined concentrations. Further serial 2-fold dilutions were performed in a 96-well microplate (Becton Dickinson, Franklin Lakes, N.J.) with BHI broth. The inoculum concentration was adjusted to 5×10^6 CFU/mL with ultraviolet-visible (UV-vis) spectroscopy at 600 nm. An equal volume (100 μL) of bacterial suspension was added to each microplate well with a final volume of 200 μL. Plates were incubated at 37° C. for 24 h under aerobic conditions. The lowest CAm concentration that yielded no visible growth was recorded as the MIC. Cetyltrimethylammonium bromide (CTAB), a cationic amphiphile, served as a positive control that could mimic the proposed bactericidal mechanism of the newly synthesized tartaric acid-based compounds.
(§3) CAms were evaluated against five selected pathogenic microorganisms, including Gram-positive bacteria (i.e., S. aureus and L. monocytogenes) and Gram-negative bacteria (i.e., E. coli, S. typhimurium, and P. aeruginosa), using a turbidity-based microdilution method. MICs were taken as the lowest concentrations that inhibited the visible bacterial growth. […] The higher MIC values for the Gram-negative bacteria could be attributed to the presence of an additional lipopolysaccharide layer, which forms a hydrophilic barrier that could prevent penetration of the highly hydrophobic CAms.

[2] = test system: Listeria monocytogenes Scott A; experiment: Broth microdilution assay (MIC); assay type: cell-based; details: BHI broth, 37° C., 24 h, no visible growth
Method: as §1, §2, §3

[3] = test system: Pseudomonas aeruginosa ATCC 15442; experiment: Broth microdilution assay (MIC); assay type: cell-based; details: BHI broth, 37° C., 24 h, no visible growth
Method: as §1, §2, §3

[4] = test system: Staphylococcus aureus ATCC 13565; experiment: Broth microdilution assay (MIC); assay type: cell-based; details: BHI broth, 37° C., 24 h, no visible growth
Method: as §1, §2, §3

[5] = test system: Salmonella enterica serovar typhimurium; experiment: Broth microdilution assay (MIC); assay type: cell-based; details: BHI broth, 37° C., 24 h, no visible growth
Method: as §1, §2
CAms were evaluated against five selected pathogenic microorganisms, including Gram-positive bacteria (i.e., S. aureus and L. monocytogenes) and Gram-negative bacteria (i.e., E. coli, S. typhimurium, and P. aeruginosa), using a turbidity-based microdilution method. MICs were taken as the lowest concentrations that inhibited the visible bacterial growth.

[6] = test system: Gram-positive and Gram-negative bacteria; experiment: Broth microdilution assay, whole panel; assay type: cell-based; details: 250 μg/mL
Method: as §1
as §2, with “Plates were incubated at 37° C. for 24 h under aerobic conditions.” left out, “Cetyltrimethylammonium bromide (CTAB), a cationic amphiphile, served as a positive control that could mimic the proposed bactericidal mechanism of the newly synthesized tartaric acid-based compounds.” left out
CAms were evaluated against five selected pathogenic microorganisms, including Gram-positive bacteria (i.e., S. aureus and L. monocytogenes) and Gram-negative bacteria (i.e., E. coli, S. typhimurium, and P. aeruginosa), using a turbidity-based microdilution method. […]

[7] = test system: G. vaginalis pre-formed biofilms; experiment: MBC-B against pre-formed biofilms (Example 2); assay type: cell-based; details: ≥3 log reduction in viable cells
Method: The minimum biofilm bactericidal concentrations (MBC-Bs) of the cationic amphiphiles against pre-formed biofilms of L. monocytogenes and G. vaginalis were identified. The biofilms of the two targeted microorganisms were grown in 96-well plates according to established methodology for Gram-positive and Gram-variable bacteria (Tabak et al., FEMS microbiology letters. 2009; 301(1):69-76). To identify the reduction in the number of biofilm-associated viable cells treated with different concentrations of cationic amphiphiles, the spot plate method was used (Turovskiy et al., Infectious diseases in obstetrics and gynecology. 2012; 2012:284762, 9 pages). In brief, biofilms were washed, disrupted, diluted 10^1-10^8 times with fresh medium and the samples plated on suitable solid medium.

[8] = test system: planktonic cells of G. vaginalis; experiment: Checkerboard assay, planktonic cells; assay type: cell-based, Gardnerella vaginalis
Method: To evaluate the potential effectiveness of the antimicrobial combinations on planktonic and biofilm cells, a checkerboard assay was performed following Algburi et al. (Algburi et al., 2015. Path Dis 73(5)) with minor modifications. For planktonic cells, the overnight grown G. vaginalis was diluted to approximately 10^6 CFU/ml. Each antimicrobial agent was diluted twofold with sBHI broth into two separate 96-well non-tissue culture microplates. From each dilution of antimicrobial B, 50 μl was added horizontally over 50 μl of antimicrobial A. Then, 100 μl of bacterial suspension (10^6 CFU/ml) was separately added to the predetermined concentration of antimicrobial combinations. The MIC of each combination was determined after 24 h of incubation.
(§4) Isobolograms were used to compare the MIC and MBC-B values of each antimicrobial alone with its MIC and MBC-B values in combination with other antimicrobials. The point on the axis (X) refers to MIC or MBC-B values of the first antimicrobial with the coordinates (0, x), and the point on the axis (Y) represents the MIC or MBC-B values of the second antimicrobial with the coordinates (y, 0) when they used alone. The two MIC or MBCs-B values are connected by a dashed line (Turovskiy Y, Chikindas M L. 2011 Probiotics Antimicrob Proteins 3:144-149). The MICs or MBCs-B of each antimicrobial combination are plotted as dots on the graph. Results are expressed according to the locations of these dots from the line that connects MICs or MBCs-B of the first and second antimicrobials. When MICs or MBCs-B values are located under the line, the two combining antimicrobials are synergized, but antagonized against the tested microorganism when these dots of interaction are above. An additive effect is observed when these dots are located on the line.

[9] = test system: biofilms of G. vaginalis; experiment: Checkerboard assay, biofilm cells; assay type: cell-based, Gardnerella vaginalis
Method: For biofilm formation, the overnight culture of G. vaginalis was diluted to approximately 10^7 CFU/ml and 200 μl was transferred into a 96-well tissue culture microplate and incubated anaerobically at 37° C. for 24-36 h. Following biofilm formation and removal of non-adherent cells by washing the biofilm twice with BHIG, each antimicrobial was diluted twofold separately with BHIG broth into two 96-white deep-well microplates. From each dilution of antimicrobial B, 125 μL was added horizontally over 125 μL of antimicrobial A (see FIG. 1 of Algburi et al., 2015. Path Dis 73(5)). From each combination, 200 μL samples were added to the biofilm in sequence, and the microplate was incubated for 24 h at 37° C. under anaerobic conditions. The spot plate method was utilized for counting the number of CFU/ml and evaluating the bactericidal activity (MBC-B) of each antimicrobial combination against biofilm-associated G. vaginalis. Isobolograms were used to analyze the nature of antimicrobial interaction, which is classified as synergistic, antagonistic or additive activity against the planktonic and biofilm cells.
as §4

[10] = test system: vaginal lactobacilli; experiment: MIC against vaginal lactobacilli; assay type: cell-based, Lactobacillus species
Method: According to Clinical and Laboratory Standards Institute (CLSI 2010), the MIC is defined as the lowest concentration of antimicrobial compound producing no visible growth or complete inhibition of bacterial growth during 24 h. To determine MIC values, the broth microdilution assay was performed according to Algburi et al. (Algburi et al., 2015. Path Dis 73(5)) with minor modifications. Briefly, the overnight-grown cells were diluted with their suitable culture medium to approach ˜10^6 CFU/ml. The number of bacterial cells was identified using spot plate method (Turovskiy et al., 2012. Infect Dis Obstet Gynecol 2012:284762). The CAms were serially diluted twofold with sBHI into a non-tissue culture 96-well microplate plate (Falcon, Corning Incorporated, Corning, N.Y., USA) resulting in a final volume of 100 μl for each well. Aliquots of 100 μl of the diluted cell suspension (˜10^6 CFU/ml) were added to each well of a microplate that was treated with different concentrations of CAms. To avoid culture medium evaporation, 75 μl of mineral oil (Sigma-Aldrich, St. Louis, Mo.) was added to each treated well. The microplate was then transferred to the plate reader (Model 550, Bio-Rad Laboratories, Hercules, Calif., USA) and incubated at 37° C. for 24-36 h. The kinetic reading was statistically analyzed, and the MIC and sub-MIC of each CAm compound were determined.

metronidazole's MIC in combination with the tested CAms [8] [µM] | MIC ([8]; Gardnerella vaginalis, read-out: MIC when used alone) [µM] | metronidazole's MIC against biofilms in combination with the tested CAms [9] [µM] | metronidazole's MIC against biofilms, metronidazole alone [9] [µM] | Structure (SMILES) | MIC E. coli (G−) [1] [µg/mL] | MIC L. monocytogenes (G+) [2] [µg/mL] | MIC P. aeruginosa (G−) [3] [µg/mL] | MIC S. aureus (G+) [4] [µg/mL] | MIC S. typhimurium (G−) [5] [µg/mL] | antimicrobial activity at the highest concentration tested [6] | MBC ([7]; Gardnerella vaginalis, pre-formed biofilm) [µg/mL] | MBC-B, biofilm-associated G. vaginalis [7] [µg/mL] | concentration that inhibited the growth of vaginal lactobacilli [10] [µM]
– | – | – | – | CCCCCCCCCCCCOC(C(=O)NCCN)C(OCCCCCCCCCCCC)C(=O)NCCN.Cl.Cl (stereo not shown) [5c] | >250 | 125 | >250 | 3.9 | >250 | didn't show appreciable antimicrobial activity | – | – | –
– | – | – | – | CCCCCCCCCCCC(=O)OC(C(=O)NCCN)C(OC(=O)CCCCCCCCCCC)C(=O)NCCN.Cl.Cl (stereo not shown) [8c] | >250 | >250 | >250 | 15.6 | >250 | didn't show appreciable antimicrobial activity | – | – | –
– | – | – | – | CCC[C@@H]1C[C@@H](C(=O)N[C@@H]([C@H]2O[C@H](SC)[C@H](O)[C@@H](O)[C@H]2O)[C@H](C)Cl)N(C)C1 [clindamycin, reference compound] | – | – | – | – | – | – | 20000 (≈ 47.1 mM) | – | –
4.7 | 37.4 | 11.1 | 40.4 | Cc1ncc([N+](=O)[O-])n1CCO [metronidazole, reference compound] | – | – | – | – | – | – | – | 500 (≈ 2.92 mM) | > 1168.5
